Marks after values point to notes of the source that are not given here.
How the values were obtained:
[1] = system: MCF-7 xenograft; experiment: Orthotopic MCF-7 xenograft model in NSG mice; assay type: in vivo; settings: for anti-tumor effect in words: LSZ102 20 mg/kg QD, tamoxifen 60 mg/kg, fulvestrant 5 mg/mouse
Method: Mice were supplemented with estradiol (0.72 mg estradiol/90-day release pellets) to further support MCF-7 tumor growth several days prior to cell implantation. MCF-7 tumors were established in female NSG mice by injection of 10×10^6 cells in 50% Matrigel® into the axillary mammary fat pad area of each mouse. When tumors reached an average of 200 mm^3, mice were randomized according to tumor volume into treatment groups (n=8).

[2] = biological target: T1, ERα (Homo sapiens, UniProt P03372); experiment: Immunoblot ERα protein quantification, MCF-7 parental cells; settings: 24 hr
T1 sequence (P03372 1-595): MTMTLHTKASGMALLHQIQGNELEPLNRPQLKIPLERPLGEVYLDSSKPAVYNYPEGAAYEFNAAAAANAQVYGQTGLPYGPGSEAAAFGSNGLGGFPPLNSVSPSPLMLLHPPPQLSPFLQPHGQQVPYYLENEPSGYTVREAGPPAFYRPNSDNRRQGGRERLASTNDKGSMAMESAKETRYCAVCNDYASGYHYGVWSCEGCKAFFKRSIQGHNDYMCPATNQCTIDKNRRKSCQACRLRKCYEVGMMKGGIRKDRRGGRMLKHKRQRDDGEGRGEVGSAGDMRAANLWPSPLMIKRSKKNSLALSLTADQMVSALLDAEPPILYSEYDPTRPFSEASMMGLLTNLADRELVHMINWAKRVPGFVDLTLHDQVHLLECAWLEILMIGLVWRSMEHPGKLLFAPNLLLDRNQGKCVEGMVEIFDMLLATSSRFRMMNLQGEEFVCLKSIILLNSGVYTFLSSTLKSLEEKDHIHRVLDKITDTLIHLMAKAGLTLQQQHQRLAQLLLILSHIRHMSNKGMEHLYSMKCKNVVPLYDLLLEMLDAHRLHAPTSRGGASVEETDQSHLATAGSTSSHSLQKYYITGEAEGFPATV

[3] = system: MCF-7 cell line; experiment: Insulin driven proliferation assay; assay type: cell-based, human
[4] = system: HBRX1298 xenograft; experiment: ER+ primary breast cancer model HBRX1298 in NSG mice; assay type: in vivo; settings: 5 mg/mouse SC QWeek, Day 63
Method: HBRX1298 tumors were established in NSG female mice by injection of a tumor brei into the inguinal mammary fat pad area. Mice were implanted with 0.72 mg estradiol/90-day release pellets several days prior to cell implantation. When tumors reached approximately 250 mm3, mice were randomized according to tumor volume into treatment groups (n=6 for all, except n=4 for estradiol withdrawal) on Day 38.

[5] = system: MCF-7 xenograft; experiment: Dose fractionation study in mice with MCF-7 xenografts; assay type: in vivo; settings: 5 mg/mouse SC QWeek, Day 61

SMILES	ΔT/ΔC (%) ([1]; 5 mg/mouse SC QWeek, Day 48)	anti-tumor effect in words [1]	ER protein levels [2]	effect in insulin driven proliferation assay [3]	ΔT/ΔC (%) [4]	ΔT/ΔC (%) [5]
C[C@]12CC[C@@H]3c4ccc(O)cc4C[C@@H](CCCCCCCCC[S+]([O-])CCCC(F)(F)C(F)(F)F)[C@H]3[C@@H]1CC[C@@H]2O (some centres unmarked) [Fulvestrant]	24* %	suppression of growth	significantly reduce ER protein levels	inhibited	48* %	18* %
CC/C(=C(\c1ccccc1)c1ccc(OCCN(C)C)cc1)c1ccccc1 [Tamoxifen]	–	tumor stasis	–	unaffected	–	–

— US20220031657A1 (NOVARTIS AG, priority 2017, published 2022)
